Data reported in ChEMBL document CHEMBL1127954, “A new approach to synthesis of vinblastine analogs. Addition of organozinc reagents to the dihydropyridinium ion generated by fragmentative coupling to catharanthine and vindoline” (Bioorg Med Chem Lett, 1994).
Values joined by “and” are separate entries in the source; they are usually repeats but may differ in a detail not shown here. Identical values can stand only once.

Molecular target: Tubulin (Bos taurus, UniProt Q6B856+Q862L2+Q862F3)
Test: In vitro inhibitory activity against bovine brain tubulin assembly at a concentration of 3-3.5 mg/ml
Assay type: functional

SMILES | IC50
CCC1CN2CCc3c([nH]c4ccccc34)[C@@](C(=O)OC)(c3cc4c(cc3OC)N(C)C3C45CCN4CC=CC(CC)(C45)C(OC(C)=O)[C@]3(O)C(=O)OC)CC(C2)[C@H]1CC (stereo not given in full) | 1300 nM and 1400 nM
CCC1CN2CCc3c([nH]c4ccccc34)[C@@](C(=O)OC)(c3cc4c(cc3OC)N(C)C3C45CCN4CC=CC(CC)(C45)C(OC(C)=O)[C@]3(O)C(=O)OC)CC(C2)[C@H]1C(C)(C)C (stereo not given in full) | 400 nM
CCC1CN2CCc3c([nH]c4ccccc34)[C@@](C(=O)OC)(c3cc4c(cc3OC)N(C)C3C45CCN4CC=CC(CC)(C45)C(OC(C)=O)[C@]3(O)C(=O)OC)CC(C2)[C@H]1c1ccccc1 (stereo not given in full) | 500 nM and 600 nM

The next lines start with the values.

IC50 | SMILES
1400 nM and 1600 nM | CCC1=CC2CN(CCc3c([nH]c4ccccc34)[C@@](C(=O)OC)(c3cc4c(cc3OC)N(C)C3C45CCN4CC=CC(CC)(C45)C(OC(C)=O)[C@]3(O)C(=O)OC)C2)[C@@H]1c1ccccc1 (stereo not given in full)
21000 nM and 28000 nM | CCC1=CC2CN(CCc3c([nH]c4ccccc34)[C@@](C(=O)OC)(c3cc4c(cc3OC)N(C)C3C45CCN4CC=CC(CC)(C45)C(OC(C)=O)[C@]3(O)C(=O)OC)C2)[C@@H]1C#Cc1ccccc1 (stereo not given in full)
